Test results published in patent publication US9956232B2, “Dialkyl-phosphinoyl-alkane (Dapa) compounds and compositions for treatment of lower gastrointestinal tract disorders” (priority 2016, dated 2018).
Values joined by “and” are separate entries in the source; they are usually repeats but may differ in a detail not shown here. Equal values may be shown once. “Also recorded” adds a separate entry of the source.

Assays:
[1] = target: TRPM8 (Homo sapiens, UniProt Q7Z2W7); test: TRPM8 receptor agonist assay (Fluo-8 calcium, FLIPR); format: cell-based; design: host or cells: CHO cells, stably transfected; conditions: for ×Menthol: TRPM8 relative potency as repeated in Table 4; for Relative Potency: relative to menthol = 1.0 (Table 2)
Sequence of TRPM8 (Q7Z2W7 whole entry): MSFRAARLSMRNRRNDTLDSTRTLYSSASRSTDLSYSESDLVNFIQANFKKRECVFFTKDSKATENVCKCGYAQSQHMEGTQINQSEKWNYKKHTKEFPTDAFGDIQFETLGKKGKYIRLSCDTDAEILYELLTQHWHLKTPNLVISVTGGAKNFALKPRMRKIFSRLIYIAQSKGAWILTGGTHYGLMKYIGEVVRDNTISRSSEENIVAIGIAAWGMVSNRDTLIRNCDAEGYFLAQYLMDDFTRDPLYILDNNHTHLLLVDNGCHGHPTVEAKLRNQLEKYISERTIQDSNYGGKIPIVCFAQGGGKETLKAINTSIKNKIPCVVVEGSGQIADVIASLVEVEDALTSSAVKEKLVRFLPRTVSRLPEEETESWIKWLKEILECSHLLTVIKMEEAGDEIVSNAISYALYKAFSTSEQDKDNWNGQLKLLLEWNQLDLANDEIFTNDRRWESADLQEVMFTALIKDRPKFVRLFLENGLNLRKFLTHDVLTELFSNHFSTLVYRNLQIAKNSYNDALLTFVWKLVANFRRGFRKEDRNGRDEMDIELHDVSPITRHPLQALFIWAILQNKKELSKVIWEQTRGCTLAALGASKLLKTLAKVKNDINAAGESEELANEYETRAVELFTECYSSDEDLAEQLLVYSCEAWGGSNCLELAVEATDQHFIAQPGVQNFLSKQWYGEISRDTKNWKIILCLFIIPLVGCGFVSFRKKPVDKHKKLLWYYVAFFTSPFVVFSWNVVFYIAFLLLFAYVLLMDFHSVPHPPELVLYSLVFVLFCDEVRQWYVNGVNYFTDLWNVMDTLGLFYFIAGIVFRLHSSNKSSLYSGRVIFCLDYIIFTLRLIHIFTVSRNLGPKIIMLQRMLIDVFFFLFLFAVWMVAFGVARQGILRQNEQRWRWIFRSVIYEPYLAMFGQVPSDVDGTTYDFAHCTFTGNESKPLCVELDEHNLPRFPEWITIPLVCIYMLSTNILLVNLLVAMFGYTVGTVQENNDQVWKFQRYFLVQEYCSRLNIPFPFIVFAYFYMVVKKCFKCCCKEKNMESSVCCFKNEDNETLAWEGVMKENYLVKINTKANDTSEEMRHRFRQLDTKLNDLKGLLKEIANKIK
Method: Compounds were tested on (CHO) cells stably transfected with human TRPM8 cDNAs using a Fluo-8 calcium kit and a Fluorescence Imaging Plate Reader ([…]™) instrument. […] Solutions were prepared by diluting stock solutions in a HEPES-buffered physiological saline (HBPS) solution. Test compound and control formulations were loaded in polypropylene or glass-lined 384-well plates, and placed into the FLIPR instrument (Molecular Devices Corporation, Union City, Calif., USA). Each was tested at 8 concentrations with n=4 replicates per determination. […] For […]™ assay, cells were plated in 384-well black wall, flat clear-bottom microtiter plates (Type: BD Biocoat Poly-D-Lysine Multiwell Cell Culture Plate) at approximately 30,000 cells per well. Cells were incubated at 37° C. overnight to reach a near confluent monolayer appropriate for use in a fluorescence assay. The test procedure was to remove the growth media and to add 40 μL of HBPS containing Fluo-8 for 30 minutes at 37° C. 10 μL of test compound, vehicle, or control solutions in HBPS were added to each well and read for 4 minutes. Concentration-response data were analysed via the FLIPR Control software that is supplied with the FLIPR System (MDS-AT) and fitted to a Hill equation.

[2] = test system: pentobarbital-anesthetized male rats; test: Shaking frequency (wet-dog shaking) of anesthetized rats after intravenous, perioral or topical delivery; format: in vivo; conditions: anesthetized rat; for Shaking frequency, Intravenous: 2 mg/kg i.v., 2nd trial, counted for 15 min; for Shaking frequency, Perioral: 20 mg/kg by oral gavage, counted for 40 min; for Shaking frequency, Topical: 20 μL pure compound on shaved abdominal skin, counted for 1 hr
Method: In experiments conducted here, test compounds were evaluated for “wet-dog shaking” as a model of cooling sensation. Using a standardized procedure, test compounds were compared in their ability to stimulate the shaking response by intravenous injection into a cannulated femoral vein, by perioral administration, and by topical delivery to the abdominal skin.
Each rat was given two injections with a 30 min interval. […] Shaking frequency was counted for 15 min after injection. Shaking was observed immediately after i.v. injection and at least 78% of the total shakes occurred in the first 5 min after injection. The response in the second trial was at least as robust in the first trial, showing the lack of desensitization.
Test compounds were dissolved in saline and administered by oral gavage to pentobarbital-anesthetized male albino rats at 20 mg/kg at a volume of 0.1 mL/100 g body weight [N=3 to 4 rats per compound]. Shaking was counted over a 40 min period and recorded at 10-min intervals.
For topical application of DAPA, the abdominal skin of the anesthetized rat was shaved and 20 μL of the pure DAPA was applied with a micropipette onto a ˜1 cm diameter circle of skin, enclosed with a ring of cream [Baby cream “Nevskaya kosmetika Detskyi” Nevskaya Kosmetika Inc., Saint-Petersburg 192029], as shown in FIG. 5D. The number of shakes was counted for 1 hr after application.

[3] = test system: heat-induced edema in the anesthetized rat paw; test: Heat-induced edema in the anesthetized rat paw; format: in vivo; conditions: 20 mg/mL, 0.3 mL per paw, 30 min before 58° C. water 1 min; relative to contralateral paw
Excerpt: Inflammation is defined as the reaction of vascularized living tissue to local injury [Cotran, R S. 1989. Inflammation and repair. In Robbins: Pathologic Basis of Disease, ed. S. L. Robbins, R. S. Cotran, V. Kumar, 2:39-86. Philadelphia: Saunders. 4th ed.]. The characteristic signs of inflammation are redness, swelling, heat, and pain (and loss of function). The anti-inflammatory properties of the DAPA compounds were studied in a model of heat-induced vascular leakage [Wei et al. Method of inhibiting inflammatory response. U.S. Pat. No. 4,801,612; Wei et al., Anti-inflammatory peptide agonists. Annual Review Pharmacol Toxicol. 33:9-108, 1993]. When the paws of pentobarbital-anesthetized rats (200 to 300 g body weight) are immersed in 58° C. water for 1 min, the normal paw volume of about 1.8 mL was increased by ˜88% within 30 min, the swelling being due to an increase in water content of the paw.
Test compounds were dissolved in 20% water-80% R-1,2-propanediol at 20 mg/mL. The solutions were applied to the paw skin of pentobarbital-anesthetized rats (200 to 300 g body weight) at 0.3 mL per paw, using a syringe attached to a blunt 21 gauge needle covered at its tip with a piece of polyethylene 60 tubing. After distributing the solution over the paw, the paw was tightly enclosed in a plastic finger cut from a disposable glove. The contralateral paw [control] received only the vehicle. Thirty min after application, both paws were immersed in 58° C. water for 1 min. Thirty min after immersion, both paws were cut at ankle joint with scissors and weighed.
This degree of inhibition is significant for tissue protection as the injury stimulus is of supra-maximal intensity. The DAPA-2-5 effect was apparent to the untrained observer.

[4] = test system: Strains TA 98 and TA100; test: Ames test; format: cell-based; conditions: TA 98 and TA100, with and without liver activation
Method: Preliminary toxicological studies were conducted on DAPA-2-5 and DAPA-2-7.

[5] = Repeated-dose toxicity in male rats (organ weights, histology); format: in vivo, rat; conditions: 30 mg/kg subcutaneously daily for 7 days, male rats
[6] = test system: isolated mouse vagus; test: Capsaicin-induced depolarization of the isolated vagus nerve
Excerpt: An isolated vagus nerve model was developed at Imperial College, London, U.K. [Birrell et al. TrpA1 agonists evoke coughing in guinea pig and human volunteers. Amer. J. respiratory and critical care medicine 180, 1042-7, 2009; Patel, H. J. et al. Inhibition of guinea-pig and human sensory nerve activity and the cough reflex in guinea-pigs by cannabinoid (CB2) receptor activation. Brit. J. Pharmacol. 140, 261-8, 2003]. In this in vitro assay, segments of the mouse vagus nerve are placed on a platform and the electrical activity is recorded after topical application of capsaicin. Capsaicin is a known irritant that elicits pain when it is applied to the skin and it will depolarize the isolated vagus. […] The similar effect of DAPA-2-5 in this test system was published in U.S. Ser. No. 14/55,042. Briefly, segments of vagus nerve, caudal to the nodose ganglion, were removed from mice with fine forceps and segments placed in oxygenated Krebs solution and bubbled with 95% O2/5% CO2. The desheathed nerve trunk was mounted in a ‘grease-gap’ recording chamber and constantly superfused with Krebs solution with a flow rate of approximately 2 mL/min, and the electrical activity of the nerve monitored with electrodes. The temperature of the perfusate was kept constant at 37° C. by a water bath. Nerve depolarizations were induced by superfusion of the nerve with capsaicin (1 μM). After two reproducible depolarization responses to capsaicin, DIPA-1-7 was applied at 1 mg/mL for 10 minutes in the perfusate followed by capsaicin.

[7] = target: TRPA1 (Homo sapiens, UniProt O75762); test: TRPA1 selectivity assay, calcium entry in transfected CHO cells; format: cell-based; design: expressed in transfected cells; host or cells: CHO cells; conditions: maximum tested concentration 100 μM
Sequence of TRPA1 (O75762 whole entry): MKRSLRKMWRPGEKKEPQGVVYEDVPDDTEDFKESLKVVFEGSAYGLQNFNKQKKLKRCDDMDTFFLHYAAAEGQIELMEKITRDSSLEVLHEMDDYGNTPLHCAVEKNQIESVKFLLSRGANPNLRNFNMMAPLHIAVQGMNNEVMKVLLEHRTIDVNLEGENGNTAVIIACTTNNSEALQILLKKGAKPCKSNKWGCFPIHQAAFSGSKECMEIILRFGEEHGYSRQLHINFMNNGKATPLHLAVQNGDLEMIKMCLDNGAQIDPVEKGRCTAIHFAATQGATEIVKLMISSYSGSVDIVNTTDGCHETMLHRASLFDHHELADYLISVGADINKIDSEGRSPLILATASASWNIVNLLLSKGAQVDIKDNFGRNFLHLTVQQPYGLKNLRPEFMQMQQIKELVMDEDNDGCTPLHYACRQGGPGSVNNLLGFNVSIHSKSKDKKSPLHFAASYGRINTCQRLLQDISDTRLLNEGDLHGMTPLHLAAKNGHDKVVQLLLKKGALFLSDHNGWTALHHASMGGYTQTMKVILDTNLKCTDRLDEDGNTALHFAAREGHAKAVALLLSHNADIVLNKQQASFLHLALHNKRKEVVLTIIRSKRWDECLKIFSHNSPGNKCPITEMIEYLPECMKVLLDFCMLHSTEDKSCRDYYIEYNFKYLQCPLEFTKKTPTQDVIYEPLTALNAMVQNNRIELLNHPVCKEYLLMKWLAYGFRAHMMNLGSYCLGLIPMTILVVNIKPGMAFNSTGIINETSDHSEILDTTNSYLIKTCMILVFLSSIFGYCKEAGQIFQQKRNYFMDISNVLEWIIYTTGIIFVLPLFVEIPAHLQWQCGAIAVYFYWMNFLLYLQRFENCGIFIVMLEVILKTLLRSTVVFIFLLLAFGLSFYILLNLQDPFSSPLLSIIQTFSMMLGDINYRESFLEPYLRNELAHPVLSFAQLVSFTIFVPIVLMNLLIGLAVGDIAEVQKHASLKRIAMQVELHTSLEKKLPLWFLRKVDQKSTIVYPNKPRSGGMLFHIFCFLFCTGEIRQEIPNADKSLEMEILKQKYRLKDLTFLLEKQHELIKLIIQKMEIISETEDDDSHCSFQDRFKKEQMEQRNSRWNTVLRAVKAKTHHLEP
Excerpt: (§1) The selectivity of test compounds were examined on TRPV1 channels (human TRPV1 gene expressed in HEK293 cells) and TRPA1 channels (human TRPA1 gene expressed in CHO cells). The test cells were Chinese Hamster Ovary (CHO) cells or Human Embyronic Kidney (HEK) 293 cells transfected with human TRPV1 or TRPA1 cDNAs.
(§2) The ordinate is given in Relative Fluorescence Units; % of maximum, which measure calcium entry into the transfected cells and the abscissa is the logarithm of the concentration of the test compound.

[8] = target: TRPV1 (Homo sapiens, UniProt Q8NER1); test: TRPV1 selectivity assay, calcium entry in transfected HEK293 cells; format: cell-based; design: expressed in transfected cells; host or cells: HEK293 cells; conditions: maximum tested concentration 100 μM
Sequence of TRPV1 (Q8NER1 whole entry): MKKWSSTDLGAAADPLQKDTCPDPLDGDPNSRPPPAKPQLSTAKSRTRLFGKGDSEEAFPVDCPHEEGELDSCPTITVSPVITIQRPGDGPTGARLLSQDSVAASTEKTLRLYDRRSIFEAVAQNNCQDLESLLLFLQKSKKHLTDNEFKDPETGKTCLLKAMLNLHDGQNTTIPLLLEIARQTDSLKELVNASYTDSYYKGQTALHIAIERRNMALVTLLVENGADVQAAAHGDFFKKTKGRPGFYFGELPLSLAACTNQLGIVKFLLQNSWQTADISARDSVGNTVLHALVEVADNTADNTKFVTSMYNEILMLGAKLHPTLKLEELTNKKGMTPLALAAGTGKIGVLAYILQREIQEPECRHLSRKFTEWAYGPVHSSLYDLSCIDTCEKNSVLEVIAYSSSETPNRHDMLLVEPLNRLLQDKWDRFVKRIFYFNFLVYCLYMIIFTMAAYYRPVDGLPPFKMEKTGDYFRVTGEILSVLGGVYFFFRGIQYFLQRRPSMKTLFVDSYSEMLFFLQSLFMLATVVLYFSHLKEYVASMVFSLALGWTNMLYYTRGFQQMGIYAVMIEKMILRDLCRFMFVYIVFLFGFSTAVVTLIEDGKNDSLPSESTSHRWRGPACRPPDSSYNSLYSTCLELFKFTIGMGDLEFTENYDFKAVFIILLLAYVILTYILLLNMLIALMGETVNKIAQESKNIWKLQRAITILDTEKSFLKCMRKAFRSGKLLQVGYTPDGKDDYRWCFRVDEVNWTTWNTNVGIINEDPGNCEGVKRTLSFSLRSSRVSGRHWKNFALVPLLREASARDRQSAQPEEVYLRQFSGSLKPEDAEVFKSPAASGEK
Excerpt: as §1, §2

Structure (SMILES) | ×Menthol [1] | Relative Potency [1] | Shaking frequency, Intravenous [2] | Shaking frequency, Perioral [2] | Shaking frequency, Topical [2] | Inhibition of Heat Edema (±S.E.M.) [3] | other results
CCCCP(=O)(C(C)CC)C(C)CC (centres unmarked) [DAPA-2-4, 1-Di(sec-butyl) phosphinoyl-butane] | 0.3 | 0.3 | 8 ± 2 shakes | 0 shakes | 0 shakes | – | –
CCCCCCP(=O)(C(C)CC)C(C)CC (centres unmarked) [DAPA-2-6, 1-Di(sec-butyl) phosphinoyl-hexane] | 4.7 | 4.7 | 30 ± 3 shakes | 0 shakes | 0 shakes | 2.9 ± 1.4% | –
CCCCCCCP(=O)(C(C)CC)C(C)CC (centres unmarked) [DAPA-2-7, 1-Di(sec-butyl) phosphinoyl-heptane] | 3.4 | 3.4 | 15 ± 2 shakes | 0 shakes | 0 shakes | 5.2 ± 2.1% | mutagenicity in the Ames test [4]: Neither of these compounds was mutagenic; body or organ weights vs vehicle [5]: no significant differences in body or organ weights; heart and liver histology [5]: normal
CCCCCCCCP(=O)(C(C)CC)C(C)CC (centres unmarked) [DAPA-2-8, 1-Di(sec-butyl) phosphinoyl-octane] | 2.9 | 2.9 | 2. shakes | 0 shakes | 0 shakes | – | –
CCCCCP(=O)(CC(C)C)CC(C)C [DAPA-3-1, 1-Di(iso-butyl) phosphinoyl-pentane] | – | 0.2 | – | – | – | – | –
CCC(C)P(=O)(CCC(C)C)C(C)CC (centres unmarked) [DAPA-3-2, 1-Di(sec-butyl) phosphinoyl-3-methyl-butane] | – | 0.9 | – | – | – | – | –
CCCCCP(=O)(C(C)C)C(C)C [DIPA-1-5, 1-Diisopropyl-phosphinoyl-pentane] | 0.7 | 0.7 | 19 ± 3 shakes | 86 shakes and 86 ± 7 shakes | 138 ± 15 shakes | – | –
CCCCCCP(=O)(C(C)C)C(C)C [DIPA-1-6, 1-Diisopropyl-phosphinoyl-hexane] | 1.6 | 1.6 | 39 ± 4 shakes | 56 shakes and 56 ± 5 shakes | 69 ± 8 shakes | – | –
CCCCCCCP(=O)(C(C)C)C(C)C [DIPA-1-7, 1-Diisopropyl-phosphinoyl-heptane] | 5.4 | 5.4 | 25 ± 3 shakes | 36 shakes and 36 ± 4 shakes | 79 ± 8 shakes | −1.5 ± 2.0% | inhibition at 1000 µg/mL ([6]; isolated TRPM8 knock-out mouse vagus, 1 mg/mL, capsaicin 1 μM, read-out: percent inhibition of capsaicin-induced depolarization): ~20%; depolarization evoked by the compound by itself ([6]; isolated mouse vagus, no capsaicin): did not evoke depolarization; percent inhibition of capsaicin-induced depolarization ([6]; isolated normal (wild type) mouse vagus, 1 mg/mL superfused 10 min, capsaicin 1 μM): about 75%; agonist or antagonist activity on TRPA1 channels [7]: did not exhibit significant agonist on antagonist activity; agonist or antagonist activity on TRPV1 channels [8]: did not exhibit significant agonist on antagonist activity; also recorded: slight non-dose-dependent agonist action
CCCCCCCCP(=O)(C(C)C)C(C)C [DIPA-1-8, 1-Diisopropyl-phosphinoyl-octane] | 5.4 | 5.4 | 14 ± 2 shakes | 0 shakes | 7 ± 2 shakes | −5.0 ± 2.7% | agonist or antagonist activity on TRPA1 channels [7]: did not exhibit significant agonist on antagonist activity; agonist or antagonist activity on TRPA1 channels ([7]; listed as DAPA-1-8): devoid of agonist or antagonist activities; agonist or antagonist activity on TRPV1 channels [8]: did not exhibit significant agonist on antagonist activity; agonist or antagonist activity on TRPV1 channels ([8]; listed as DAPA-1-8): devoid of agonist or antagonist activities
COc1cc(CNC(=O)CCCC/C=C/C(C)C)ccc1O [capsaicin, reference compound] | – | – | – | – | – | – | agonist or antagonist activity on TRPV1 channels [8]: active
